# Key:
# [1] = system: EMT phenotypic cells (MCF-7/TGFβ, MDA-MB-231 and T47D-shNMI); test: phage capture assay; format: cell-based, human; settings: for selectivity for EMT phenotypic cells: MDA-MB-231 and T47D-shNMI, selective = at least five times higher relative binding
# Text: (§1) Individual phage clones were characterized for their selectivity toward EMT cells, MCF-7/TGFβ and MDA-MB-231 breast cancer cells in comparison with epithelial breast cancer cells, MCF-7, T47D, and breast fibroblasts using phage capture assay and cell-based ELISA.
# (§2) In phage capture assay, briefly, target cells MCF-7/TGFβ, MDA-MB-231, MCF-7, T47D, T47D-shNMI and breast fibroblasts were cultivated in triplicate to confluence in separate wells of 12-well cell culture plates. The medium with serum was incubated in separate wells in triplicate as a control. Cells were incubated with phage (1×10^10 pfu) at RT for 1 h. Unbound phages were carefully removed and cells were washed with 100 μl washing buffer for 5 min eight times to remove non-specifically interacting phages. Cells were lysed with […] (2.5% CHAPS) for 10 min on a rocker. The lysate containing cell-interacting phages was titered in E. coli ER2738 bacterial cells. Phage recovery was calculated as a ratio of output to input phage.
# [2] = system: MCF-7 cells; test: immunofluorescence microscopy of phage binding; format: cell-based, human; settings: 10^8 pfu, RT 1 hr
# Description: (§3) MCF-7, MCF-7/TGFβ, MDA-MB-231 and Hs578T (breast fibroblasts) cells were seeded in a 4-well chamber overnight. On the next day, cells were fed with fresh medium. LGLRGSL (SEQ ID NO: 1) (E11) (10^8 pfu) was added in fresh medium and incubated at RT for one hour. After removing the unbound phages, cells were washed with wash buffer (0.1% tween-20 in PBS) three times and fixed with 4% formaldehyde for 15 minutes at 37° C. Cells were permeabilized with 0.2% Triton X-100 at RT for 10 minutes. Reagent was removed and cells were washed with TBS 3 times. Before incubation with anti-phage antibody, cells were treated with blocking buffer for 30 minutes at RT. Cells were incubated with M13-pIII monoclonal antibody for 1 hour at RT, washed and incubated with the secondary goat anti-mouse IgG antibody labeled with Alexa Flour® 488 (Molecular Probes) at a dilution of 1:500 in PBS containing 1% BSA for 45 minutes at RT. Cells were washed three times after secondary antibody treatment. TOTO-3 was used for nucleus staining. Cells were covered with cover slides with Prolong Gold Anti-fade Reagents. Nail polish was used to seal the slide. Pictures were taken by using the NIKON eclipse TE 2000-E confocal microscope.
# (§4) To further confirm the specificity of LGLRGSL (SEQ ID NO: 1) (E11) towards breast cancer cells with an EMT phenotype, immunofluorescence microscopy of intact cells (MCF-7/TGF β and MDA-MB-231), and control MCF-7 breast cancer cells and breast fibroblasts (Hs578T) were used. All cells were treated with the phage (10^8 pfu) at RT for 1 hr, and subsequently incubated with primary anti-pIII antibody and then stained with secondary anti-mouse Alexa fluor 488 secondary antibody. […] No background antibody was observed as shown in the respective controls of cells treated with just primary and secondary antibodies.
# [3] = system: MCF-7/TGFβ; test: immunofluorescence microscopy of phage binding; format: cell-based, human; settings: 10^8 pfu, RT 1 hr
# Description: as §3, §4
# [4] = system: breast fibroblasts (Hs578T); test: immunofluorescence microscopy of phage binding; format: cell-based, human; settings: 10^8 pfu, RT 1 hr
# Description: as §3, §4
# [5] = system: MDA-MB-231; test: immunofluorescence microscopy of phage binding; format: cell-based, human; settings: 10^8 pfu, RT 1 hr
# Description: as §3, §4
# [6] = system: human breast cancer tissue microarray; test: ex vivo phage binding to human breast cancer tissue microarray; settings: for immunostaining for phage in invasive ductal breast cancer carcinoma: invasive ductal carcinoma sections, 10^10 pfu overnight; for binding in normal breast tissues: normal breast tissue
# Description: FIG. 7A-7E presents results of ex vivo phage binding to a human breast cancer tissue microarray. Tissue microarray of invasive ductal carcinoma and adjacent normal tissues were incubated with 1010 pfu of LGLRGSL phage (SEQ ID NO: 1) or Vimentin antibody and then subsequently with M13-pIII antibody for phage and secondary peroxidase antibody for phage and Vimentin, imaged with a digital light microscope.
# The breast tissue microarrays were obtained from Novus Biological (Littleton, Colo.). These include 40 breast cancer infiltrating ductal carcinoma, 10 metastatic lymph node and 9 adjacent normal breast tissues. The use of tissue was approved by the Institutional Review Board of Tuskegee University. Clinico-histopathologic characteristics of the subjects in the tissue microarray study included age, grade, hormone status and clinical stage, according to information provided by the suppliers. The expression levels were classified as negative (≤0.3), weak positive (0.3 to 1.5), or strong positive (≥1.5). Tissues were de-paraffinized in xylene and rehydrated in graded alcohols. For antigen retrieval the slides were pressure-cooked for 10 minutes. Endogenous peroxidase activity was quenched with 3% hydrogen peroxide for 5 minutes. vSlides were treated with LGLRGSL phage (SEQ ID NO: 1) (10^10 pfu) overnight. Slides were subsequently washed and blocked by 3% goat serum at room temperature for 1 hour in humidity chambers. Slides were then treated with M13-pIII phage monoclonal antibody (NEB, MA) or Vimentin antibody (Cell Siganling, Danvers, Mass.) (1:100). The HRP conjugated goat anti-mouse secondary antibody (Jackson Immunoresearch Laboratories Inc, West Grove, Pa.) was applied for 40 minutes. The antigen-antibody reaction was visualized after diaminobenzidine (Sigma-Aldrich, MO) was applied for 7 minutes. The slides were counterstained with hematoxylin (Sigma-Aldrich, MO) for 1 minute. Positive controls were included in each staining run; negative controls were obtained by omitting the primary antibody. Slides were then dehydrated in alcohols and cleared in three xylene baths before being mounted with Permount media.
# [7] = system: EMT cells (MCF-7/TGFβ, MDA-MB-231, T47D-shNMI); test: phage based-ELISA (cell-based ELISA); parameters: species or system human; settings: 10^10 PFU, 1 hour at RT
# Description: as §1
# Confluent monolayers of MCF-7/TGFβ, MDA-MB-231, MCF-7, T47D, T47D-shNMI and breast fibroblasts cells were incubated at room temperature with individual phage clones (10^10 PFU), for 1 hour at RT. Subsequently, cells were washed with PBS containing 0.1% Tween-20, incubated with primary anti-M13-biotin antibody (1:1000), for 1 h, at RT. Cells were washed again with PBS containing 0.1% Tween-20, incubated with secondary antibody streptavidin-HRP (1:2000, 45 min, RT), developed with tetra methyl benzidine and read at absorbance 650 with microplate reader (BioTek).
# [8] = molecular target: T1, heat shock protein HSPD1 (Homo sapiens, UniProt P10809); test: biotinylated phage pulldown of receptor protein from MDA-MB-231; format: binding; settings: pulldown from MDA-MB-231
# T1 construct: endogenous in cells; host or cells: MDA-MB-231 human breast cancer cells
# T1 sequence (P10809 27-573): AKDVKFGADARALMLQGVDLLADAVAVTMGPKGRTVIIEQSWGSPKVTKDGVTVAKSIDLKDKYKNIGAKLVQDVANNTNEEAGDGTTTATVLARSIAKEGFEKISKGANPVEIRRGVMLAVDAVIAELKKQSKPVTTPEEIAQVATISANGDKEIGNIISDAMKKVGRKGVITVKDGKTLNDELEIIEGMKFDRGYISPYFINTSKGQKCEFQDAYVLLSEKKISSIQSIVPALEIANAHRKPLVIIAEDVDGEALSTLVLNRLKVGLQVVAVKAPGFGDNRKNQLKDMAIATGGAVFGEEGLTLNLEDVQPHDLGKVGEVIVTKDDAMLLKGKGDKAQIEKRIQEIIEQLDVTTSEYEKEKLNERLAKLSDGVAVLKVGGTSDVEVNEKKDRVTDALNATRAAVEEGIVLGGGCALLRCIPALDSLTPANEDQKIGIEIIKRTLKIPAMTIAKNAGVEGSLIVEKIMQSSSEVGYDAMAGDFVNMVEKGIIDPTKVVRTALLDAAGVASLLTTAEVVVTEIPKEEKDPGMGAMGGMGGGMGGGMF
# Description: The biotinylated phage immobilizes the receptor protein. The Dynal magnetic beads are then functionalized with streptavidin. […] To visualize the protein, the SDS-page gel was treated with silver nitrate staining. FIG. 9B discloses SEQ ID NO: 26. FIG. 9 C provides the sequence of Heat shock protein (HSPD1), mitochondrial n=2 Tax=Homo sapiens RepID=CH60_HUMAN 5 exclusive unique peptides, 5 exclusive unique spectra, 8 total spectra, 48/573 amino acids (8% coverage). FIG. 9C discloses SEQ ID NO: 27.
# [9] = system: activated fibroblasts; test: phage capture assay of phage binding to cancer-conditioned media activated fibroblasts; format: cell-based, human
# Description: as §2
# Breast fibroblasts were plated in a 12.5 cm flask cultured until approximately 70% confluent. Once properly confluent, fibroblasts were then cultured in MDA-MB-231 conditioned media or normal fibroblasts media for 72 hours. Thereafter, they were exposed to E11 phage (10^8 pfu) for 2 hours and analyzed for binding in phage capture assay as described above.
substance,measurement,setting,value
GTFLFS [E32],selectivity for EMT phenotypic cells,[1]; MCF-7/TGFβ,very selective
KGDYKLF [L42],"selectivity towards MCF-7/TGFβ, MCF-7 and breast fibroblasts","[1]; MCF-7/TGFβ, MCF-7 and breast fibroblasts",not so selective
same,specificity towards MDA-MB-231 cells,[1]; MDA-MB-231 cells,high specificity
LGLRGSL [E11],phage binding (green fluorescent phage staining),[2],some staining
same,phage binding (green fluorescent phage staining),[3],abundant binding
same,phage binding (green fluorescent phage staining),[4],almost no binding
same,phage binding (green fluorescent phage staining),[5],abundant binding
same,selectivity for EMT phenotypic cells,[1]; MCF-7/TGFβ,very selective
same,immunostaining for phage in invasive ductal breast cancer carcinoma,[6],substantial staining
same,immunostaining for phage in invasive ductal breast cancer carcinoma,[6]; listed as LGLRGSL phage,Strong brown staining
same,staining intensity in tumors invading into adjacent lymph nodes,[6]; metastasis in lymph nodes,increased
same,binding in normal breast tissues,[6],no binding
same,binding in normal breast tissues,[6]; listed as LGLRGSL phage,no staining
same,staining around the invasive or leading edge of the tumor-stromal interaction,"[6]; tumor cells, invasive or leading edge",robust staining
same,selectivity towards EMT cells in phage-based ELISA,[7],confirmatory
same,binding to heat shock protein HSPD1,[8],binds
same,reactivity to activated fibroblasts,"[9]; FIG. 5, FBC vs FBD",highly reactive
same,binding to activated-fibroblasts than normal fibroblasts,"[9]; fibroblasts in MDA-MB-231 conditioned media 72 hours vs normal fibroblast media, 10^8 pfu, 2 hours",twice as much
PNLPWVP [E45],selectivity for EMT phenotypic cells,[1]; MCF-7/TGFβ,very selective

# Source: patent US11624748B2, “Methods and compositions for the identification of epithelial to mesenchymal breast cancer” (Tuskegee University, priority 2019, dated 2023)
